Experimental data from the supplement of paper PMC10307832.

Legend:
Assay in all cases: relative viability (nuclei count vs DMSO), 5 days (fraction); higher = more cells survive
[1] = compound: CN1C=C(C2=CC=CC=C21)/C=C\3/C4=C(C=CC=N4)NC3=O + C[C@]1(O)C[C@@H](c2nc(-c3ccc4ccc(-c5ccccc5)nc4c3)c3c(N)nccn32)C1 [Linsitinib] (partner 1 µM)
Outline: (§1)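 Lung cancer cell lines were seeded in 1536-well plates and dosed by pin tool the next day, with either a single drug or a fixed anchor-drug dose combined with five library-drug doses (not always all listed) spaced in √10 steps. Five days later, one step fixed the cells and stained their nuclei (final 0.05% Triton X-100, 1% formaldehyde, 1 ug/ml Hoechst), and nuclei were counted on 4× images. Relative viability is the nuclei count in treated wells divided by the count in vehicle wells, and each value is the median of duplicate plates.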

Trametinib + OSI-027 = compound: CC(=O)Nc1cccc(-n2c(=O)n(C3CC3)c(=O)c3c(Nc4ccc(I)cc4F)n(C)c(=O)c(C)c32)c1 [Trametinib] + COc1cccc2cc(-c3nc([C@H]4CC[C@H](C(=O)O)CC4)n4ncnc(N)c34)[nH]c12 [OSI-027] (partner 0.5 µM)
Outline: as §1

Trametinib + Luminespib = compound: CC(=O)Nc1cccc(-n2c(=O)n(C3CC3)c(=O)c3c(Nc4ccc(I)cc4F)n(C)c(=O)c(C)c32)c1 [Trametinib] + CCNC(=O)c1noc(-c2cc(C(C)C)c(O)cc2O)c1-c1ccc(CN2CCOCC2)cc1 [Luminespib] (partner 0.01 µM)
Outline: as §1

[2] = compound: CN1C=C(C2=CC=CC=C21)/C=C\3/C4=C(C=CC=N4)NC3=O + Nc1ncn([C@H]2C[C@H](O)[C@@H](CO)O2)c(=O)n1 [Decitabine] (partner 2 µM)
Outline: as §1

## NCI-H1993
[1]; first compound 0.02 µM
  relative viability: 0.539
[1]; first compound 0.06325 µM
  relative viability: 0.635
[1]; first compound 0.2 µM
  relative viability: 0.71
[1]; first compound 0.6325 µM
  relative viability: 0.765
[1]; first compound 2 µM
  relative viability: 0.621
Trametinib + OSI-027; first compound 0.0025 µM
  relative viability: 0.545
Trametinib + OSI-027; first compound 0.007906 µM
  relative viability: 0.606
Trametinib + OSI-027; first compound 0.025 µM
  relative viability: 0.624
Trametinib + OSI-027; first compound 0.07906 µM
  relative viability: 0.657
Trametinib + OSI-027; first compound 0.25 µM
  relative viability: 0.699
Trametinib + Luminespib; first compound 0.0025 µM
  relative viability: 0.74
Trametinib + Luminespib; first compound 0.007906 µM
  relative viability: 0.693
Trametinib + Luminespib; first compound 0.025 µM
  relative viability: 0.749
Trametinib + Luminespib; first compound 0.07906 µM
  relative viability: 0.528
Trametinib + Luminespib; first compound 0.25 µM
  relative viability: 0.578
[2]; first compound 0.02 µM
  relative viability: 0.532
[2]; first compound 0.06325 µM
  relative viability: 0.589
[2]; first compound 0.2 µM
  relative viability: 1.3
[2]; first compound 0.6325 µM
  relative viability: 0.578
[2]; first compound 2 µM
  relative viability: 0.529

## EMC-BAC-2
[1]; first compound 0.02 µM
  relative viability: 0.787
[1]; first compound 0.06325 µM
  relative viability: 0.826
[1]; first compound 0.2 µM
  relative viability: 0.806
[1]; first compound 0.6325 µM
  relative viability: 0.852
[1]; first compound 2 µM
  relative viability: 0.867
Trametinib + OSI-027; first compound 0.0025 µM
  relative viability: 0.452
Trametinib + OSI-027; first compound 0.007906 µM
  relative viability: 0.488
Trametinib + OSI-027; first compound 0.025 µM
  relative viability: 0.381
Trametinib + OSI-027; first compound 0.07906 µM
  relative viability: 0.511
Trametinib + OSI-027; first compound 0.25 µM
  relative viability: 0.359
Trametinib + Luminespib; first compound 0.0025 µM
  relative viability: 1.18
Trametinib + Luminespib; first compound 0.007906 µM
  relative viability: 1.04
Trametinib + Luminespib; first compound 0.025 µM
  relative viability: 1.04
Trametinib + Luminespib; first compound 0.07906 µM
  relative viability: 0.95
Trametinib + Luminespib; first compound 0.25 µM
  relative viability: 0.684
[2]; first compound 0.02 µM
  relative viability: 0.925
[2]; first compound 0.06325 µM
  relative viability: 0.926
[2]; first compound 0.2 µM
  relative viability: 1.01
[2]; first compound 0.6325 µM
  relative viability: 0.99
[2]; first compound 2 µM
  relative viability: 1.04

## NCI-H2087
[1]; first compound 0.02 µM
  relative viability: 0.82
[1]; first compound 0.06325 µM
  relative viability: 0.708
[1]; first compound 0.2 µM
  relative viability: 1.02
[1]; first compound 0.6325 µM
  relative viability: 0.944
[1]; first compound 2 µM
  relative viability: 1.23
Trametinib + OSI-027; first compound 0.0025 µM
  relative viability: 0.323
Trametinib + OSI-027; first compound 0.007906 µM
  relative viability: 0.275
Trametinib + OSI-027; first compound 0.025 µM
  relative viability: 0.139
Trametinib + OSI-027; first compound 0.07906 µM
  relative viability: 0.137
Trametinib + OSI-027; first compound 0.25 µM
  relative viability: 0.101
Trametinib + Luminespib; first compound 0.0025 µM
  relative viability: 0.17
Trametinib + Luminespib; first compound 0.007906 µM
  relative viability: 0.137
Trametinib + Luminespib; first compound 0.025 µM
  relative viability: 0.137
Trametinib + Luminespib; first compound 0.07906 µM
  relative viability: 0.141
Trametinib + Luminespib; first compound 0.25 µM
  relative viability: 0.148
[2]; first compound 0.02 µM
  relative viability: 0.227
[2]; first compound 0.06325 µM
  relative viability: 0.239
[2]; first compound 0.2 µM
  relative viability: 0.255
[2]; first compound 0.6325 µM
  relative viability: 0.326
[2]; first compound 2 µM
  relative viability: 0.363

## NCI-H441
[1]; first compound 0.02 µM
  relative viability: 0.634
[1]; first compound 0.06325 µM
  relative viability: 0.588
[1]; first compound 0.2 µM
  relative viability: 0.494
[1]; first compound 0.6325 µM
  relative viability: 0.424
[1]; first compound 2 µM
  relative viability: 0.57
Trametinib + OSI-027; first compound 0.0025 µM
  relative viability: 0.543
Trametinib + OSI-027; first compound 0.007906 µM
  relative viability: 0.56
Trametinib + OSI-027; first compound 0.025 µM
  relative viability: 0.392
Trametinib + OSI-027; first compound 0.07906 µM
  relative viability: 0.446
Trametinib + OSI-027; first compound 0.25 µM
  relative viability: 0.196
Trametinib + Luminespib; first compound 0.0025 µM
  relative viability: 0.331
Trametinib + Luminespib; first compound 0.007906 µM
  relative viability: 0.264
Trametinib + Luminespib; first compound 0.025 µM
  relative viability: 0.362
Trametinib + Luminespib; first compound 0.07906 µM
  relative viability: 0.285
Trametinib + Luminespib; first compound 0.25 µM
  relative viability: 0.327
[2]; first compound 0.02 µM
  relative viability: 0.225
[2]; first compound 0.06325 µM
  relative viability: 0.247
[2]; first compound 0.2 µM
  relative viability: 0.23
[2]; first compound 0.6325 µM
  relative viability: 0.229
[2]; first compound 2 µM
  relative viability: 0.497

## LXF-289
[1]; first compound 0.02 µM
  relative viability: 0.901
[1]; first compound 0.06325 µM
  relative viability: 0.935
[1]; first compound 0.2 µM
  relative viability: 1.04
[1]; first compound 0.6325 µM
  relative viability: 1
[1]; first compound 2 µM
  relative viability: 0.999
Trametinib + OSI-027; first compound 0.0025 µM
  relative viability: 0.766
Trametinib + OSI-027; first compound 0.007906 µM
  relative viability: 0.656
Trametinib + OSI-027; first compound 0.025 µM
  relative viability: 0.452
Trametinib + OSI-027; first compound 0.07906 µM
  relative viability: 0.453
Trametinib + OSI-027; first compound 0.25 µM
  relative viability: 0.243
Trametinib + Luminespib; first compound 0.0025 µM
  relative viability: 0.616
Trametinib + Luminespib; first compound 0.007906 µM
  relative viability: 0.642
Trametinib + Luminespib; first compound 0.025 µM
  relative viability: 0.507
Trametinib + Luminespib; first compound 0.07906 µM
  relative viability: 0.491
Trametinib + Luminespib; first compound 0.25 µM
  relative viability: 0.351
[2]; first compound 0.02 µM
  relative viability: 0.403
[2]; first compound 0.06325 µM
  relative viability: 0.338
[2]; first compound 0.2 µM
  relative viability: 0.425
[2]; first compound 0.6325 µM
  relative viability: 0.396
[2]; first compound 2 µM
  relative viability: 0.381

## NCI-H661
[1]; first compound 0.02 µM
  relative viability: 0.689
[1]; first compound 0.06325 µM
  relative viability: 0.536
[1]; first compound 0.2 µM
  relative viability: 0.578
[1]; first compound 0.6325 µM
  relative viability: 0.486
[1]; first compound 2 µM
  relative viability: 0.559
Trametinib + OSI-027; first compound 0.0025 µM
  relative viability: 0.686
Trametinib + OSI-027; first compound 0.007906 µM
  relative viability: 0.595
Trametinib + OSI-027; first compound 0.025 µM
  relative viability: 0.51
Trametinib + OSI-027; first compound 0.07906 µM
  relative viability: 0.522
Trametinib + OSI-027; first compound 0.25 µM
  relative viability: 0.389
Trametinib + Luminespib; first compound 0.0025 µM
  relative viability: 0.914
Trametinib + Luminespib; first compound 0.007906 µM
  relative viability: 0.917
Trametinib + Luminespib; first compound 0.025 µM
  relative viability: 0.888
Trametinib + Luminespib; first compound 0.07906 µM
  relative viability: 0.702
Trametinib + Luminespib; first compound 0.25 µM
  relative viability: 0.641
[2]; first compound 0.02 µM
  relative viability: 0.594
[2]; first compound 0.06325 µM
  relative viability: 0.562
[2]; first compound 0.2 µM
  relative viability: 0.496
[2]; first compound 0.6325 µM
  relative viability: 0.564
[2]; first compound 2 µM
  relative viability: 0.555

## PC-3 [JPC-3]
[1]; first compound 0.02 µM
  relative viability: 0.947
[1]; first compound 0.06325 µM
  relative viability: 0.902
[1]; first compound 0.2 µM
  relative viability: 0.974
[1]; first compound 0.6325 µM
  relative viability: 0.889
[1]; first compound 2 µM
  relative viability: 0.917
Trametinib + OSI-027; first compound 0.0025 µM
  relative viability: 0.803
Trametinib + OSI-027; first compound 0.007906 µM
  relative viability: 0.635
Trametinib + OSI-027; first compound 0.025 µM
  relative viability: 0.675
Trametinib + OSI-027; first compound 0.07906 µM
  relative viability: 0.595
Trametinib + OSI-027; first compound 0.25 µM
  relative viability: 0.581
Trametinib + Luminespib; first compound 0.0025 µM
  relative viability: 0.656
Trametinib + Luminespib; first compound 0.007906 µM
  relative viability: 0.574
Trametinib + Luminespib; first compound 0.025 µM
  relative viability: 0.385
Trametinib + Luminespib; first compound 0.07906 µM
  relative viability: 0.405
Trametinib + Luminespib; first compound 0.25 µM
  relative viability: 0.396
[2]; first compound 0.02 µM
  relative viability: 0.863
[2]; first compound 0.06325 µM
  relative viability: 0.777
[2]; first compound 0.2 µM
  relative viability: 0.863
[2]; first compound 0.6325 µM
  relative viability: 0.786
[2]; first compound 2 µM
  relative viability: 0.812

## NCI-H1651
[1]; first compound 0.02 µM
  relative viability: 0.958
[1]; first compound 0.06325 µM
  relative viability: 0.989
[1]; first compound 0.2 µM
  relative viability: 1.03
[1]; first compound 0.6325 µM
  relative viability: 1.06
[1]; first compound 2 µM
  relative viability: 1.05
Trametinib + OSI-027; first compound 0.0025 µM
  relative viability: 0.54
Trametinib + OSI-027; first compound 0.007906 µM
  relative viability: 0.702
Trametinib + OSI-027; first compound 0.025 µM
  relative viability: 0.443
Trametinib + OSI-027; first compound 0.07906 µM
  relative viability: 0.603
Trametinib + OSI-027; first compound 0.25 µM
  relative viability: 0.469
Trametinib + Luminespib; first compound 0.0025 µM
  relative viability: 0.866
Trametinib + Luminespib; first compound 0.007906 µM
  relative viability: 0.736
Trametinib + Luminespib; first compound 0.025 µM
  relative viability: 0.749
Trametinib + Luminespib; first compound 0.07906 µM
  relative viability: 0.791
Trametinib + Luminespib; first compound 0.25 µM
  relative viability: 0.654
[2]; first compound 0.02 µM
  relative viability: 0.649
[2]; first compound 0.06325 µM
  relative viability: 0.613
[2]; first compound 0.2 µM
  relative viability: 0.5
[2]; first compound 0.6325 µM
  relative viability: 0.643
[2]; first compound 2 µM
  relative viability: 0.578
